Measurements published in patent US9446039B2, “Aminoheteroaryl compounds as MTH1 inhibitors” (CEMM—FORSCHUNGSZENTRUM FÜR MOLEKULARE MEDIZIN GMBH, priority 2012, dated 2016).

Tests used:
Type in all cases: binding
[1] = target: T1, SW480 colon carcinoma cells lysate proteins (Homo sapiens, UniProt Q9UHD8); details: PreyGene 09-Sep
T1 sequence (Q9UHD8 1-586): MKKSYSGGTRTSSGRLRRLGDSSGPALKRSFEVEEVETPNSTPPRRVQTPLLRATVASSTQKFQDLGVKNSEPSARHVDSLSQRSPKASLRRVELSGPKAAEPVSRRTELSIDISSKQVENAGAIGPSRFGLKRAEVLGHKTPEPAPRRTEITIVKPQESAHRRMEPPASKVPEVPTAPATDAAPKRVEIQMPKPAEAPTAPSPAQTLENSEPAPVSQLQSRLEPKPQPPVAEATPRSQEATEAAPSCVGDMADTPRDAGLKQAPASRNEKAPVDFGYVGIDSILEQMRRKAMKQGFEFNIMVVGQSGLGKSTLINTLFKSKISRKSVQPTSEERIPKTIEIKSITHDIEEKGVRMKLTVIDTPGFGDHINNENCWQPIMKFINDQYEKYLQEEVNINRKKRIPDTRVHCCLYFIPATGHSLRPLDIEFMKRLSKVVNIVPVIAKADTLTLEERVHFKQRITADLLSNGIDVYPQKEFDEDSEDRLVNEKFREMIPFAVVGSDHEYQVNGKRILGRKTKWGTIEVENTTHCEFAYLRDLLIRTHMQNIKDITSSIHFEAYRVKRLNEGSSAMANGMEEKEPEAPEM

[2] = target: T2, SW480 colon carcinoma cells lysate proteins (Homo sapiens, UniProt Q16181); details: PreyGene 07-Sep
T2 sequence (Q16181 1-437): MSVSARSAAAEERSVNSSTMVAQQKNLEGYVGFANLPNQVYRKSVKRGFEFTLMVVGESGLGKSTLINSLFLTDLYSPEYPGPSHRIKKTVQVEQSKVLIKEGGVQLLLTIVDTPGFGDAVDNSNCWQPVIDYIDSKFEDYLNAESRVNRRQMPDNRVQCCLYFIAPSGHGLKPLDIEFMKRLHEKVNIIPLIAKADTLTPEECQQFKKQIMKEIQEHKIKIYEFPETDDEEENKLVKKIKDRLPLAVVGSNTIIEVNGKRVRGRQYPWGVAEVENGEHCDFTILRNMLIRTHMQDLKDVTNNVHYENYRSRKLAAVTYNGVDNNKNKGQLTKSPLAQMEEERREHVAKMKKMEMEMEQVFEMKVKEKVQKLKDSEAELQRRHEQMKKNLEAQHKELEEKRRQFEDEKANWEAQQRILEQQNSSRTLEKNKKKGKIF

[3] = target: SW480 colon carcinoma cells lysate proteins (Homo sapiens, UniProt P07237); details: PreyGene P4HB
[4] = target: T3, SW480 colon carcinoma cells lysate proteins (Homo sapiens, UniProt P12429); details: PreyGene ANXA3
T3 sequence (P12429 1-323): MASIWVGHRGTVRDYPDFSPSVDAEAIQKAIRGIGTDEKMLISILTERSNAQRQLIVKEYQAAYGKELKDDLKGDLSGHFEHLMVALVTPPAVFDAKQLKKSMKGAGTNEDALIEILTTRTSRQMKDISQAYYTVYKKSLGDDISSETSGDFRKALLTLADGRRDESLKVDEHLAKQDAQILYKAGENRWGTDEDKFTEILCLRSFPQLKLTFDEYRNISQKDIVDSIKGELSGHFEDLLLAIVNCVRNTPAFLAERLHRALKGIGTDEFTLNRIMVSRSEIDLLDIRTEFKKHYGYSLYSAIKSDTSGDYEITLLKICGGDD

[5] = target: SW480 colon carcinoma cells lysate proteins (Homo sapiens, UniProt P23284); details: PreyGene PPIB
[6] = target: SW480 colon carcinoma cells lysate proteins (Homo sapiens, UniProt P06753); details: PreyGene TPM3
[7] = target: T4, SW480 colon carcinoma cells lysate proteins (Homo sapiens, UniProt P00492); details: PreyGene HPRT1
T4 sequence (P00492 1-218): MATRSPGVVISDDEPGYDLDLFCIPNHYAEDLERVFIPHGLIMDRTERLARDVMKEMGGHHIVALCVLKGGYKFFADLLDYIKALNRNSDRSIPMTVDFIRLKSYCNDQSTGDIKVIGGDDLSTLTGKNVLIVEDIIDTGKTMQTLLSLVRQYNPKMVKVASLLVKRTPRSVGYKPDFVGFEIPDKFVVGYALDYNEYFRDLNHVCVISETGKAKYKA

[8] = target: T5, SW480 colon carcinoma cells lysate proteins (Homo sapiens, UniProt P32119); details: PreyGene PRDX2
T5 sequence (P32119 1-198): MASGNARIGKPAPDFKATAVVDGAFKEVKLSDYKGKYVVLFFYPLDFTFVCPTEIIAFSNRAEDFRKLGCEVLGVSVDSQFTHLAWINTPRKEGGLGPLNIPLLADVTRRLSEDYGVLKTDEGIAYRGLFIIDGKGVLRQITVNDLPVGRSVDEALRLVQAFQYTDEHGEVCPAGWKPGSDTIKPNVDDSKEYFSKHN

SW480 colon carcinoma cells lysate proteins (Homo sapiens, UniProt P07237), sequence (P07237 18-508): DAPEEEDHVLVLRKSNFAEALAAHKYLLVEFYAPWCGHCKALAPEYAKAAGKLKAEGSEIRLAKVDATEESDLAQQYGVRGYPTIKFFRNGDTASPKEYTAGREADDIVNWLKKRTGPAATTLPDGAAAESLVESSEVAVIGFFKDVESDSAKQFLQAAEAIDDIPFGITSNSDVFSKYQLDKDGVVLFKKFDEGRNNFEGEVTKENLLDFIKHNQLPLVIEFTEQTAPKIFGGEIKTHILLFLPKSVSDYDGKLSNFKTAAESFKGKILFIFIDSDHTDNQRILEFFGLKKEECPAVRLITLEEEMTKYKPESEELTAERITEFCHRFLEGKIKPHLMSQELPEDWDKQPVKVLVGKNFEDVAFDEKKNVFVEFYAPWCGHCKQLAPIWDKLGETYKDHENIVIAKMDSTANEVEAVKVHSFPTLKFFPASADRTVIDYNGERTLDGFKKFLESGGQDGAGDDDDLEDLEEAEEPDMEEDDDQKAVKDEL
SW480 colon carcinoma cells lysate proteins (Homo sapiens, UniProt P06753), sequence (P06753 whole entry): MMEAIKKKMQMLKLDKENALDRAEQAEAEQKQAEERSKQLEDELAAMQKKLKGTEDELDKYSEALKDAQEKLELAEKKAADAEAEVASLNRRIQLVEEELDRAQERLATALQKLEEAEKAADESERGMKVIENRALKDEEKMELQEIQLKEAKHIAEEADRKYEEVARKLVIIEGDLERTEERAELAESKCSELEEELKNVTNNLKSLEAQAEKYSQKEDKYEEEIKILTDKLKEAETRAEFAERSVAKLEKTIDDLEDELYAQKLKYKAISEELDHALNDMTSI
SW480 colon carcinoma cells lysate proteins (Homo sapiens, UniProt P23284), sequence (P23284 34-216): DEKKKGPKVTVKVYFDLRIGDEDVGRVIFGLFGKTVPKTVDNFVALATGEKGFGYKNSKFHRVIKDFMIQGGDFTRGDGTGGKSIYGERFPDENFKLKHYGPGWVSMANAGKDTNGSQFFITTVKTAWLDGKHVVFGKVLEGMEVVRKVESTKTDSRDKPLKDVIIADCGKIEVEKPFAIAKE

Structure (SMILES): C[C@H](Oc1cc(-c2cnn(C3CCNCC3)c2)cnc1N)c1c(Cl)ccc(F)c1Cl [(5)-crizotinib]
- AvgP [1]: 0.323
- SC.Exp. 1-1 [1]: 1
- SC.Exp. 1-2 [1]: 2
- SC.Exp. 2-1 [1]: 0
- SC.Exp. 2-2 [1]: 2
- Sum (SC.Exp.) [1]: 5
- AvgP [2]: 0.2962
- SC.Exp. 1-1 [2]: 3
- SC.Exp. 1-2 [2]: 3
- SC.Exp. 2-1 [2]: 0
- SC.Exp. 2-2 [2]: 0
- Sum (SC.Exp.) [2]: 6
- AvgP [3]: 0.3981
- SC.Exp. 1-1 [3]: 3
- SC.Exp. 1-2 [3]: 4
- SC.Exp. 2-1 [3]: 0
- SC.Exp. 2-2 [3]: 0
- Sum (SC.Exp.) [3]: 7
- AvgP [4]: 0.461
- SC.Exp. 1-1 [4]: 4
- SC.Exp. 1-2 [4]: 4
- SC.Exp. 2-1 [4]: 0
- SC.Exp. 2-2 [4]: 0
- Sum (SC.Exp.) [4]: 8
- AvgP [5]: 0.381
- SC.Exp. 1-1 [5]: 2
- SC.Exp. 1-2 [5]: 2
- SC.Exp. 2-1 [5]: 0
- SC.Exp. 2-2 [5]: 0
- Sum (SC.Exp.) [5]: 4
- AvgP [6]: 0.4204
- SC.Exp. 1-1 [6]: 2
- SC.Exp. 1-2 [6]: 3
- SC.Exp. 2-1 [6]: 0
- SC.Exp. 2-2 [6]: 0
- Sum (SC.Exp.) [6]: 5
- AvgP [7]: 0.1891
- SC.Exp. 1-1 [7]: 2
- SC.Exp. 1-2 [7]: 0
- SC.Exp. 2-1 [7]: 0
- SC.Exp. 2-2 [7]: 0
- Sum (SC.Exp.) [7]: 2
- AvgP [8]: 0.3255
- SC.Exp. 1-1 [8]: 4
- SC.Exp. 1-2 [8]: 4
- SC.Exp. 2-1 [8]: 0
- SC.Exp. 2-2 [8]: 0
- Sum (SC.Exp.) [8]: 8
